Test results: patent US20250213707A1, “COMPOUND FOR INCREASING EFFICACY OF ONCOLYTIC VIRUSES” (ABLEVIA BIOTECH GMBH, priority 2022, published 2025)

Each substance was assayed on polyclonal antibody ab6982 (assay: Epitope mapping of polyclonal antibody ab6982 against cyclic peptides of Ad5 fiber and hexon (peptide array)). Conditions: cyclic peptides of fiber protein (clusters 1-7).
Format: binding, rabbits
Source text: Polyclonal antibody ab6982 (Abcam) was generated by immunizing rabbits with purified AdV. It reacts with all capsid proteins of Ad5 including hexon, fiber and penton. It was shown that the antibody neutralizes Ad5 infection in a bioassay at 1000 adenovirus 5 particles/ml, a 50% inactivation of the adenovirus can be achieved at a 1/25,000 dilution of the antibody. In order to identify epitopic regions that could contain peptides for ab6982 paratope binding, the antibody was mapped against the sequences of fiber (NCBI Reference Sequence: AP 000226.1) and hexon protein (GenBank: BAG48782.1). […] The binding signal of this antibody to the array yielded several peptides that were aligned and clustered against the sequence of the protein. The peptide clusters were named cluster1-7 (fiber protein) and clusters8-16 (hexon protein) according to their ranked order of cyclic peptide hits (i.e. cluster contains the strongest binders, cluster2 the second strongest etc.). Below are the aligments of the corresponding peptides that bind to polyclonal antibody ab6982.

Substance	antibody binding signal ranking from the microarray experiment
207 (EIFATSSYTFSYI) [compound 207]	200
174 (SWDWSGHNYI) [compound 174]	149
177 (FSWDWSG) [compound 177]	186
201 (HNYINEIFATSSY) [compound 201]	099
196 (SYTFSYI) [compound 196]	064
200 (ATSSYTFSYI) [compound 200]	097
198 (EIFATSSYTF) [compound 198]	089
181 (PEYWNFR) [compound 181]	031
176 (SMSFSWDWSGHNY) [compound 176]	176
199 (NEIFATSSYTFSY) [compound 199]	092
184 (FLDPEYW) [compound 184]	050
195 (YINEIFATSSYTF) [compound 195]	055
175 (AYSMSFS) [compound 175]	167
204 (NYINEIFATSSYT) [compound 204]	119
197 (ATSSYTF) [compound 197]	080
190 (LDPEYWNFRN) [compound 190]	155
192 (NSFLDPEYWN) [compound 192]	187

Same assay, conditions: cyclic peptides of hexon protein (clusters 8-16)

Substance	antibody binding signal ranking from the microarray experiment
267 (KVVLYSEDVDIET) [compound 267]	044
283 (DIETPDT) [compound 283]	062
226 (DDNEDEVDEQAEQ) [compound 226]	16
270 (VLYSEDVDIE) [compound 270]	047
251 (EDEVDEQ) [compound 251]	126
239 (INLEEEDDDNEDE) [compound 239]	035
264 (EAATALEINL) [compound 264]	124
216 (TALEINLEEE) [compound 216]	09
228 (DNEDEVDEQA) [compound 228]	18
302 (GDRTRYFSMW) [compound 302]	101
218 (LEINLEEEDDDNE) [compound 218]	13
238 (LEEEDDDNED) [compound 238]	034
252 (EEDDDNEDEVDEQ) [compound 252]	148
210 (EAATALEINLEEE) [compound 210]	03
296 (PESYKDRMYSFFR) [compound 296]	153
279 (IETPDTHISY) [compound 279]	058
213 (EINLEEE) [compound 213]	06
307 (MLANYNIGYQGFY) [compound 307]	123
209 (ATALEINLEEEDD) [compound 209]	02
284 (DIETPDTHISYMP) [compound 284]	064
208 (ALEINLEEEDDDN) [compound 208]	01
246 (DDDNEDEVDE) [compound 246]	087
263 (EWDEAATALEINL) [compound 263]	112
276 (DVDIETPDTH) [compound 276]	054

Substance	antibody binding signal ranking from the microarray experiment
277 (DIETPDTHIS) [compound 277]	055
286 (ETPDTHISYM) [compound 286]	071
278 (EDVDIETPDTHIS) [compound 278]	056
311 (QMLANYNIGYQGF) [compound 311]	190
257 (VDEQAEQQKT) [compound 257]	036
297 (YKDRMYSFFR) [compound 297]	160
261 (WDEAATALEINLE) [compound 261]	042
242 (DDNEDEVDEQ) [compound 242]	057
232 (DEVDEQAEQQKTH) [compound 232]	24
306 (ANYNIGYQGF) [compound 306]	122
223 (NLEEEDDDNE) [compound 223]	27
294 (KDRMYSF) [compound 294]	143
211 (LEINLEE) [compound 211]	04
298 (TRYFSMW) [compound 298]	073
280 (YSEDVDIETPDTH) [compound 280]	059
214 (ALEINLEEED) [compound 214]	07
234 (DEVDEQAEQQ) [compound 234]	26
250 (EDDDNEDEVD) [compound 250]	121
240 (DDDNEDEVDEQAE) [compound 240]	037
237 (INLEEED) [compound 237]	032
308 (IGYQGFY) [compound 308]	136
227 (EVDEQAE) [compound 227]	17
260 (ALEINLE) [compound 260]	033
235 (EINLEEEDDDNED) [compound 235]	028

The substances below were run on IgG from human donors (anti-AAV antibodies) (assay: Screen for anti-AAV antibodies in human sera, 2452 linear 15-amino-acid AAV peptides on microarrays (Table 1)). Conditions: X = peptide belongs to the deduplicated aggregate of the top 25 peptide hits for each donor; linear 15-amino-acid AAV peptides, IgG binding by fluorescence.
Format: binding
Parameters: key to group I: X: the deduplicated aggregate of the respective top 10 peptide hits for each donor was compiled and designated as group I; key to group II: X: the deduplicated aggregate of the respective top 25 peptide hits for each donor was compiled and designated as group II; key to group III: X: the deduplicated aggregate of the respective top 50 peptide hits for each donor was compiled and designated as group III
Procedure, shortened: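 Peptide hits were grouped I to IV by pooling each donor's top 10, 25, 50 or 250 background-corrected fluorescence signals, after deduplication. Signals came from donor IgG, purified on protein G, bound to arrayed 15-residue linear peptides (2452 total) spanning 16 AAV sequences.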

Substance	group II
289 (YLEGNMLITSESETQ; REGION 1..15: note = peptide derived from viral capsid protein) [compound 289]	X
284 (NVGGQMATNNQSSTT; REGION 1..15: note = peptide derived from viral capsid protein) [compound 284]	X

Same assay, conditions: X = peptide belongs to the deduplicated aggregate of the top 50 peptide hits for each donor; linear 15-amino-acid AAV peptides, IgG binding by fluorescence

Substance	group III
317 (HKDDEEKFFPQSGVL; REGION 1..15: note = peptide derived from viral capsid protein) [compound 317]	X
325 (DNNEGADGVGNSSGN; REGION 1..15: note = peptide derived from viral capsid protein) [compound 325]	X
293 (SQMLRTGNFEFSYFE; REGION 1..15: note = peptide derived from viral capsid protein) [compound 293]	X
341 (TFSYTFEDVPFHSSY; REGION 1..15: note = peptide derived from viral capsid protein) [compound 341]	X
289 (YLEGNMLITSESETQ; REGION 1..15: note = peptide derived from viral capsid protein) [compound 289]	X
298 (PLGLVESPVKTAPGK; REGION 1..15: note = peptide derived from viral capsid protein) [compound 298]	X
284 (NVGGQMATNNQSSTT; REGION 1..15: note = peptide derived from viral capsid protein) [compound 284]	X

Same assay, conditions: X = peptide in the deduplicated aggregate of the top 50 peptide hits for each donor (top 17.5% of all peptides screened); linear 15-amino-acid AAV peptides on microarrays, human donor IgG, fluorescence

Substance	group III
476 (PSTSSDAEAGPSGSQ; REGION 1..15: note = peptide derived from viral capsid protein) [compound 476]	X

Same assay, conditions: membership in deduplicated aggregate of top 10 peptide hits for each donor; human donor IgG binding to linear 15-amino-acid AAV peptides on microarray, fluorescence

Substance	group I
LQQQNTAPQIGTVN (REGION 1..14: note = peptide derived from viral capsid protein) [SEQ ID NO: 1934]	X
PWGYFDFNRFHCHF (REGION 1..14: note = peptide derived from viral capsid protein) [SEQ ID NO: 1961]	X
HSQSLDRLMNPLID (REGION 1..14: note = peptide derived from viral capsid protein) [SEQ ID NO: 1951]	X

Same assay, conditions: membership in deduplicated aggregate of top 25 peptide hits for each donor; human donor IgG binding to linear 15-amino-acid AAV peptides on microarray, fluorescence

Substance	group II
LQQQNTAPQIGTVN (REGION 1..14: note = peptide derived from viral capsid protein) [SEQ ID NO: 1934]	X
PWGYFDFNRFHCHF (REGION 1..14: note = peptide derived from viral capsid protein) [SEQ ID NO: 1961]	X
HSQSLDRLMNPLID (REGION 1..14: note = peptide derived from viral capsid protein) [SEQ ID NO: 1951]	X

Same assay, conditions: membership in deduplicated aggregate of top 50 peptide hits for each donor; human donor IgG binding to linear 15-amino-acid AAV peptides on microarray, fluorescence

Substance	group III
LQQQNTAPQIGTVN (REGION 1..14: note = peptide derived from viral capsid protein) [SEQ ID NO: 1934]	X
PWGYFDFNRFHCHF (REGION 1..14: note = peptide derived from viral capsid protein) [SEQ ID NO: 1961]	X
HSQSLDRLMNPLID (REGION 1..14: note = peptide derived from viral capsid protein) [SEQ ID NO: 1951]	X
